test system: test plant species; test: Post-emergent herbicidal activity test (greenhouse, foliar spray, visual growth reduction); type: in vivo; details: post-emergence, 336 h, ALOMY: blackgrass (Alopecurus myosuroides), 140 g ai/ha, 14 days after application, read-out: Visual Growth Reduction (%) 14 Days After Application, ALOMY
In short: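 Seedlings were raised 7-21 d in a greenhouse under a 15 h photoperiod until the first or second true leaf. Each compound, dissolved in acetone:DMSO 97:3 and diluted into a surfactant-containing spray mixture, was then applied at 187 L/ha. Plants were subirrigated, and growth reduction was scored visually at 14 d.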

| Compound | pest or weed control at 140 g/ha [%] |
| --- | --- |
| O=C(O)c1nc(-c2ccc(C(F)(F)F)nc2Cl)ccc1Cl [F192, 2′,5-Dichloro-6′-(trifluoromethyl)-[2,3′-bipyridine]-6-carboxylic acid] | 0 to 29 |
| COC(=O)c1nc(-c2ccc(OS(C)(=O)=O)cc2)c(F)cc1Cl [F159, Methyl 3-chloro-5-fluoro-6-(4-((methylsulfonyl)oxy)phenyl)picolinate] | 0 to 29 |
| COC(=O)c1nc(-c2ncc(Cl)c(C(F)F)c2Cl)ccc1Cl [F184] | 0 to 29 |

same assay, conditions: post-emergence, 336 h, AMARE: redroot pigweed (Amaranthus retroflexus), 140 g ai/ha, 14 days after application, read-out: Visual Growth Reduction (%) 14 Days After Application, AMARE

| Compound | pest or weed control at 140 g/ha [%] |
| --- | --- |
| O=C(O)c1nc(-c2ccc(C(F)(F)F)nc2Cl)ccc1Cl [F192, 2′,5-Dichloro-6′-(trifluoromethyl)-[2,3′-bipyridine]-6-carboxylic acid] | 85 to 94 |
| COC(=O)c1nc(-c2ccc(OS(C)(=O)=O)cc2)c(F)cc1Cl [F159, Methyl 3-chloro-5-fluoro-6-(4-((methylsulfonyl)oxy)phenyl)picolinate] | 60 to 74 |
| COC(=O)c1nc(-c2ncc(Cl)c(C(F)F)c2Cl)ccc1Cl [F184] | 60 to 74 |

same assay, conditions: post-emergence, 336 h, AVEFA: wild oat (Avena fatua), 140 g ai/ha, 14 days after application, read-out: Visual Growth Reduction (%) 14 Days After Application, AVEFA

| Compound | pest or weed control at 140 g/ha [%] |
| --- | --- |
| O=C(O)c1nc(-c2ccc(C(F)(F)F)nc2Cl)ccc1Cl [F192, 2′,5-Dichloro-6′-(trifluoromethyl)-[2,3′-bipyridine]-6-carboxylic acid] | 0 to 29 |
| COC(=O)c1nc(-c2ccc(OS(C)(=O)=O)cc2)c(F)cc1Cl [F159, Methyl 3-chloro-5-fluoro-6-(4-((methylsulfonyl)oxy)phenyl)picolinate] | 0 to 29 |
| COC(=O)c1nc(-c2ncc(Cl)c(C(F)F)c2Cl)ccc1Cl [F184] | 0 to 29 |

same assay, conditions: post-emergence, 336 h, CHEAL: lambsquarters (Chenopodium album), 140 g ai/ha, 14 days after application, read-out: Visual Growth Reduction (%) 14 Days After Application, CHEAL

| Compound | pest or weed control at 140 g/ha [%] |
| --- | --- |
| O=C(O)c1nc(-c2ccc(C(F)(F)F)nc2Cl)ccc1Cl [F192, 2′,5-Dichloro-6′-(trifluoromethyl)-[2,3′-bipyridine]-6-carboxylic acid] | 95 to 100 |
| COC(=O)c1nc(-c2ccc(OS(C)(=O)=O)cc2)c(F)cc1Cl [F159, Methyl 3-chloro-5-fluoro-6-(4-((methylsulfonyl)oxy)phenyl)picolinate] | 45 to 59 |
| COC(=O)c1nc(-c2ncc(Cl)c(C(F)F)c2Cl)ccc1Cl [F184] | 60 to 74 |

same assay, conditions: post-emergence, 336 h, CIRAR: canada thistle (Cirsium arvense), 140 g ai/ha, 14 days after application, read-out: Visual Growth Reduction (%) 14 Days After Application, CIRAR

| Compound | pest or weed control at 140 g/ha [%] |
| --- | --- |
| O=C(O)c1nc(-c2ccc(C(F)(F)F)nc2Cl)ccc1Cl [F192, 2′,5-Dichloro-6′-(trifluoromethyl)-[2,3′-bipyridine]-6-carboxylic acid] | 75 to 84 |
| COC(=O)c1nc(-c2ccc(OS(C)(=O)=O)cc2)c(F)cc1Cl [F159, Methyl 3-chloro-5-fluoro-6-(4-((methylsulfonyl)oxy)phenyl)picolinate] | 30 to 44 |
| COC(=O)c1nc(-c2ncc(Cl)c(C(F)F)c2Cl)ccc1Cl [F184] | 45 to 59 |

same assay, conditions: post-emergence, 336 h, CYPES: yellow nutsedge (Cyperus esculentus), 140 g ai/ha, 14 days after application, read-out: Visual Growth Reduction (%) 14 Days After Application, CYPES

| Compound | pest or weed control at 140 g/ha [%] |
| --- | --- |
| O=C(O)c1nc(-c2ccc(C(F)(F)F)nc2Cl)ccc1Cl [F192, 2′,5-Dichloro-6′-(trifluoromethyl)-[2,3′-bipyridine]-6-carboxylic acid] | 0 to 29 |
| COC(=O)c1nc(-c2ccc(OS(C)(=O)=O)cc2)c(F)cc1Cl [F159, Methyl 3-chloro-5-fluoro-6-(4-((methylsulfonyl)oxy)phenyl)picolinate] | 0 to 29 |
| COC(=O)c1nc(-c2ncc(Cl)c(C(F)F)c2Cl)ccc1Cl [F184] | 0 to 29 |

same assay, conditions: post-emergence, 336 h, DIGSA: crabgrass (Digitaria sanguinalis), 140 g ai/ha, 14 days after application, read-out: Visual Growth Reduction (%) 14 Days After Application, DIGSA

| Compound | pest or weed control at 140 g/ha [%] |
| --- | --- |
| O=C(O)c1nc(-c2ccc(C(F)(F)F)nc2Cl)ccc1Cl [F192, 2′,5-Dichloro-6′-(trifluoromethyl)-[2,3′-bipyridine]-6-carboxylic acid] | 85 to 94 |
| COC(=O)c1nc(-c2ccc(OS(C)(=O)=O)cc2)c(F)cc1Cl [F159, Methyl 3-chloro-5-fluoro-6-(4-((methylsulfonyl)oxy)phenyl)picolinate] | 60 to 74 |
| COC(=O)c1nc(-c2ncc(Cl)c(C(F)F)c2Cl)ccc1Cl [F184] | 60 to 74 |

same assay, conditions: post-emergence, 336 h, ECHCG: barnyardgrass (Echinochloa crus-galli), 140 g ai/ha, 14 days after application, read-out: Visual Growth Reduction (%) 14 Days After Application, ECHCG

| Compound | pest or weed control at 140 g/ha [%] |
| --- | --- |
| O=C(O)c1nc(-c2ccc(C(F)(F)F)nc2Cl)ccc1Cl [F192, 2′,5-Dichloro-6′-(trifluoromethyl)-[2,3′-bipyridine]-6-carboxylic acid] | 75 to 84 |
| COC(=O)c1nc(-c2ccc(OS(C)(=O)=O)cc2)c(F)cc1Cl [F159, Methyl 3-chloro-5-fluoro-6-(4-((methylsulfonyl)oxy)phenyl)picolinate] | 30 to 44 |
| COC(=O)c1nc(-c2ncc(Cl)c(C(F)F)c2Cl)ccc1Cl [F184] | 85 to 94 |

same assay, conditions: post-emergence, 336 h, IPOHE: ivy-leaf morning glory (Ipomoea hederacea), 140 g ai/ha, 14 days after application, read-out: Visual Growth Reduction (%) 14 Days After Application, IPOHE

| Compound | pest or weed control at 140 g/ha [%] |
| --- | --- |
| O=C(O)c1nc(-c2ccc(C(F)(F)F)nc2Cl)ccc1Cl [F192, 2′,5-Dichloro-6′-(trifluoromethyl)-[2,3′-bipyridine]-6-carboxylic acid] | 95 to 100 |
| COC(=O)c1nc(-c2ccc(OS(C)(=O)=O)cc2)c(F)cc1Cl [F159, Methyl 3-chloro-5-fluoro-6-(4-((methylsulfonyl)oxy)phenyl)picolinate] | 45 to 59 |
| COC(=O)c1nc(-c2ncc(Cl)c(C(F)F)c2Cl)ccc1Cl [F184] | 95 to 100 |

same assay, conditions: post-emergence, 336 h, KCHSC: kochia (Bassia scoparia), 140 g ai/ha, 14 days after application, read-out: Visual Growth Reduction (%) 14 Days After Application, KCHSC

| Compound | pest or weed control at 140 g/ha [%] |
| --- | --- |
| O=C(O)c1nc(-c2ccc(C(F)(F)F)nc2Cl)ccc1Cl [F192, 2′,5-Dichloro-6′-(trifluoromethyl)-[2,3′-bipyridine]-6-carboxylic acid] | 60 to 74 |
| COC(=O)c1nc(-c2ccc(OS(C)(=O)=O)cc2)c(F)cc1Cl [F159, Methyl 3-chloro-5-fluoro-6-(4-((methylsulfonyl)oxy)phenyl)picolinate] | 0 to 29 |
| COC(=O)c1nc(-c2ncc(Cl)c(C(F)F)c2Cl)ccc1Cl [F184] | 0 to 29 |

same assay, conditions: post-emergence, 336 h, ORYSA: rice (Oryza sativa), 140 g ai/ha, 14 days after application, read-out: Visual Growth Reduction (%) 14 Days After Application, ORYSA

| Compound | pest or weed control at 140 g/ha [%] |
| --- | --- |
| O=C(O)c1nc(-c2ccc(C(F)(F)F)nc2Cl)ccc1Cl [F192, 2′,5-Dichloro-6′-(trifluoromethyl)-[2,3′-bipyridine]-6-carboxylic acid] | 0 to 29 |
| COC(=O)c1nc(-c2ccc(OS(C)(=O)=O)cc2)c(F)cc1Cl [F159, Methyl 3-chloro-5-fluoro-6-(4-((methylsulfonyl)oxy)phenyl)picolinate] | 0 to 29 |
| COC(=O)c1nc(-c2ncc(Cl)c(C(F)F)c2Cl)ccc1Cl [F184] | 30 to 44 |

same assay, conditions: post-emergence, 336 h, SETFA: giant foxtail (Setaria faberi), 140 g ai/ha, 14 days after application, read-out: Visual Growth Reduction (%) 14 Days After Application, SETFA

| Compound | pest or weed control at 140 g/ha [%] |
| --- | --- |
| O=C(O)c1nc(-c2ccc(C(F)(F)F)nc2Cl)ccc1Cl [F192, 2′,5-Dichloro-6′-(trifluoromethyl)-[2,3′-bipyridine]-6-carboxylic acid] | 75 to 84 |
| COC(=O)c1nc(-c2ccc(OS(C)(=O)=O)cc2)c(F)cc1Cl [F159, Methyl 3-chloro-5-fluoro-6-(4-((methylsulfonyl)oxy)phenyl)picolinate] | 60 to 74 |
| COC(=O)c1nc(-c2ncc(Cl)c(C(F)F)c2Cl)ccc1Cl [F184] | 85 to 94 |

same assay, conditions: post-emergence, 336 h, SORVU: grain sorghum (Sorghum vulgare), 140 g ai/ha, 14 days after application, read-out: Visual Growth Reduction (%) 14 Days After Application, SORVU

| Compound | pest or weed control at 140 g/ha [%] |
| --- | --- |
| O=C(O)c1nc(-c2ccc(C(F)(F)F)nc2Cl)ccc1Cl [F192, 2′,5-Dichloro-6′-(trifluoromethyl)-[2,3′-bipyridine]-6-carboxylic acid] | 85 to 94 |
| COC(=O)c1nc(-c2ccc(OS(C)(=O)=O)cc2)c(F)cc1Cl [F159, Methyl 3-chloro-5-fluoro-6-(4-((methylsulfonyl)oxy)phenyl)picolinate] | 30 to 44 |
| COC(=O)c1nc(-c2ncc(Cl)c(C(F)F)c2Cl)ccc1Cl [F184] | 95 to 100 |

same assay, conditions: post-emergence, 336 h, STEME: common chickweed (Stellaria media), 140 g ai/ha, 14 days after application, read-out: Visual Growth Reduction (%) 14 Days After Application, STEME

| Compound | pest or weed control at 140 g/ha [%] |
| --- | --- |
| O=C(O)c1nc(-c2ccc(C(F)(F)F)nc2Cl)ccc1Cl [F192, 2′,5-Dichloro-6′-(trifluoromethyl)-[2,3′-bipyridine]-6-carboxylic acid] | 0 to 29 |
| COC(=O)c1nc(-c2ccc(OS(C)(=O)=O)cc2)c(F)cc1Cl [F159, Methyl 3-chloro-5-fluoro-6-(4-((methylsulfonyl)oxy)phenyl)picolinate] | 0 to 29 |
| COC(=O)c1nc(-c2ncc(Cl)c(C(F)F)c2Cl)ccc1Cl [F184] | 0 to 29 |

same assay, conditions: post-emergence, 336 h, TRZAS: wheat, spring (Triticum aestivum), 140 g ai/ha, 14 days after application, read-out: Visual Growth Reduction (%) 14 Days After Application, TRZAS

| Compound | pest or weed control at 140 g/ha [%] |
| --- | --- |
| O=C(O)c1nc(-c2ccc(C(F)(F)F)nc2Cl)ccc1Cl [F192, 2′,5-Dichloro-6′-(trifluoromethyl)-[2,3′-bipyridine]-6-carboxylic acid] | 0 to 29 |
| COC(=O)c1nc(-c2ccc(OS(C)(=O)=O)cc2)c(F)cc1Cl [F159, Methyl 3-chloro-5-fluoro-6-(4-((methylsulfonyl)oxy)phenyl)picolinate] | 0 to 29 |
| COC(=O)c1nc(-c2ncc(Cl)c(C(F)F)c2Cl)ccc1Cl [F184] | 30 to 44 |

Source: patent publication US20230017045A1, “PYRIDINE AND PYRIMIDINE CARBOXYLATE HERBICIDES AND METHODS OF USE THEREOF” (Dow AgroSciences LLC, priority 2017, published 2023)
